Test results reported in patent US20060035927A1, “Calcilytic compounds” (SmithKline Beecham Corporation, priority 1999, published 2006).
Structures can show the parent of a compound that is named as a salt.

Key:
[1] = system: human TF274 osteoblastic cells; assay: Osteoblast cAMP production, TF274 cells; assay type: cell-based; conditions: compound 0.1, 1 and 10 uM
Procedure: (§1) cAMP accumulation was measured in both human TF274 osteoblastic cells (derived by immortalization of human bone marrow stromal cells) see James, supra, and primary human osteoblasts derived from explants of trabecular bone as described in Beresford, Biochim. Biophys. Acta, Vol. 801, pp. 58-65 ([…]). cAMP levels in cell samples were measured using a non-radioactive protocol (Amersham kit). Alkaline phosphatase activity was determined using the standard colorimetric method as described previously in Gowen, Arth. Rheum., Vol. 31, pp. 1500-1507 (1988). N-[(2R-Hydroxy-3-[(3-chloro-2-cyano)phenoxy-propyl]-1,1-dimethyl-2-(2-naphthyl)ethyl amine hydrochloride was tested at 0.1, 1 and 10 uM. PTH 40 ng/ml was used as a positive control.

Ca^2+ receptor = molecular target: T1, Ca^2+ receptor (Homo sapiens, UniProt P41180); assay: Ca2+ receptor-mediated Ca2+ mobilization; assay type: cell-based
T1 sequence (P41180 20-1078): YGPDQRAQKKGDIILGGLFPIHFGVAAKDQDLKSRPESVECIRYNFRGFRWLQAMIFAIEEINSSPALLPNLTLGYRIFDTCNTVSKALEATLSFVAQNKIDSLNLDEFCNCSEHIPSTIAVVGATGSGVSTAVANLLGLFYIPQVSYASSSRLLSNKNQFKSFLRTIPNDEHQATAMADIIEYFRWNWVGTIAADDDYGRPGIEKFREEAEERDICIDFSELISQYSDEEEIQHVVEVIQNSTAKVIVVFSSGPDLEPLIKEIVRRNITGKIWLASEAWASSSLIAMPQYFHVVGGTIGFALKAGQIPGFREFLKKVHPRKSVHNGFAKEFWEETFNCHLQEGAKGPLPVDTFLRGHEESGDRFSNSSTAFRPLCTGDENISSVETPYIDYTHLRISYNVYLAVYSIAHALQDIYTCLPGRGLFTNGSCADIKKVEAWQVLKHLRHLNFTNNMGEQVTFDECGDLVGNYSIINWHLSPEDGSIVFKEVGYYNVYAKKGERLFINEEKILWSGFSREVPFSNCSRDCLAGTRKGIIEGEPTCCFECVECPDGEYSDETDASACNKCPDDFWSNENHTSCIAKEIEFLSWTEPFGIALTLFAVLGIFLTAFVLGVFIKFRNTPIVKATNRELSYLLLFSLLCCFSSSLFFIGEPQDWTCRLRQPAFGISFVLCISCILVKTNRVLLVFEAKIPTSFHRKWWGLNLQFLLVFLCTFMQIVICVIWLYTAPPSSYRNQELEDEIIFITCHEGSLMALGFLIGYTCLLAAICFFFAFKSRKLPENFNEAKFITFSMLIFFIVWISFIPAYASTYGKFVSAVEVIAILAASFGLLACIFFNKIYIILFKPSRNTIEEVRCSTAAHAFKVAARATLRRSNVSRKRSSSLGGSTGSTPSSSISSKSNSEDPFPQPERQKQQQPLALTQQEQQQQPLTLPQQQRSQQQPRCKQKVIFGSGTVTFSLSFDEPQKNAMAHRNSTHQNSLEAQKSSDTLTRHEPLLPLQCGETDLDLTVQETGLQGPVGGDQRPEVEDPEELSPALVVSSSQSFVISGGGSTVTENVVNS

plasma PTH = assay: Ovariectomized rat Study 1: circulating PTH levels (RIA); assay type: in vivo
Excerpt: Seven month old virgin Sprague Dawley female rats were subjected to bilateral ovariectomy or sham surgery and the animals then held for a period of three months to allow the development of osteopenia. At that time a single sham group (n=10) and three groups of ovariectomized (ovx) animals (n=10-14) were assigned. The ovx groups were selected such that there was no significant difference in bone mineral density (“BMD”) of the lumbar spine, proximal tibia or distal femur between groups. Groups consisted of sham and ovx controls treated with dose vehicle (20% aqueous encapsin) and ovx groups treated with either N-[(2R-Hydroxy-3-[(3-chloro-2-cyano)phenoxy-propyl]-1,1-dimethyl-2-(2-naphthyl)ethyl amine hydrochloride (“calcilytic administered”) ([…] body weight daily p.o.) or rat PTH 1-34 (5 ug/kg body weight daily s.c.).
During the study blood samples were drawn for determination of circulating PTH and osteocalcin. BMD was determined by DXA (QDR4500 Hologic, Waltham, Mass.) prior to treatment and at weeks 4 and 8. At term tibiae were removed for histological analysis. All animals received tetracycline 10 and 3 days prior to the start of dosing and calcein (10 mg/kg) 10 and 3 days prior to sacrifice.
Timed plasma samples were collected relative to administration of compound or PTH. PTH 1-34 was measured by RIA (Nichols Institute Diagnostics, San Juan Capistrano, Calif.). The concentrations of compound in the plasma were quantified by LC/MS/MS (limit of detection 10 ng/ml).

[2] = system: primary human osteoblasts; assay: Osteoblast cAMP production, primary human osteoblasts; assay type: cell-based; conditions: compound 0.1, 1 and 10 uM
Procedure: as §1

fetal rat long bone = assay: Fetal rat long bone resorption assay; assay type: cell-based; conditions: 45Ca release, PTH-stimulated, 48 hours; read-out: IC50, inhibition of resorption in fetal rat long bone assay
Procedure: The assay was performed essentially as in Votta, Bone, Vol. 15, pp. 533-538, (1994). Timed-pregnant Sprague-Dawley rats (Taconic Farms, Germantown, N.Y.) were injected subcutaneously with 200 microcuries of ^45CaCl2 on day 18 of gestation, housed overnight, then anesthetized with Innovar-Vet (Pittman-Moore, Mundelein, Ill.) and sacrificed by cervical dislocation. The fetuses were removed aseptically and the radii and ulnae were dissected free of surrounding soft tissue and cartilagenous ends. The bone rudiments (n=4) were subsequently cultured for 18-24 hours in BGJb medium (Sigma, St. Louis, Mo.) containing 1 mg/ml BSA, then transferred to fresh medium and cultured for an additional 48 hours in the absence or presence of PTH (human parathyroid hormone, Bachem, Torrence, Calif.) and the desired inhibitor. ^45 Ca released into the medium and the residual ^45Ca in the bones (following solubilization in 5% TCA for 1 hour at room temperature) were quantitated by liquid scintillation spectrometry. Data are expressed as the percent ^45Ca released from treated bones as compared with corresponding control bones. Statistical differences were assessed by a one way analysis of variance (ANOVA). IC-50 values were based on data from two independent experiments.

CC(C)(Cc1ccc2ccccc2c1)NC[C@@H](O)COc1cccc(Cl)c1C#N [N-[(2R-Hydroxy-3-[(3-chloro-2-cyano)phenoxy-propyl]-1,1-dimethyl-2-(2-naphthyl)ethylamine hydrochloride]
PTH-induced cAMP levels ([1]; PTH 40 ng/ml): no effect | cAMP levels (basal) ([1]; PTH 40 ng/ml positive control): no effect | fold by which fetal rat long bone IC50 exceeds IC50 for Ca^2+ receptor-mediated Ca^2+ mobilization (Ca^2+ receptor): approximately 300 fold | plasma PTH levels at four hours after administration (plasma PTH; Study 1, after calcilytic 100 mmol/kg p.o.): remained high | plasma PTH levels (plasma PTH; Study 1, end of experiment, after calcilytic 100 mmol/kg p.o.): > 100 pg/mL | plasma PTH levels after 24 hours (plasma PTH; Study 1, immediately prior to next dose of calcilytic): back to baseline | PTH-induced cAMP levels ([2]; PTH 40 ng/ml): no effect | cAMP levels (basal) ([2]; PTH 40 ng/ml positive control): no effect | IC50 (fetal rat long bone): 11.3 µM
